Measurements from US12023360B2, “Composition and methods of screening” (OPTIBIOTIX LIMITED, priority 2013, dated 2024).

Legend:
Format in all cases: cell-based
[1] = test system: Bifidobacteria; assay: Anaerobic culture utilisation, FISH enumeration at 24 h: Bifidobacteria; conditions: inoculum 6.85
Description: (§1) In these experiments, anaerobic cultures were tested to evaluate the in vitro utilisation of a novel Lactobacillus reuteri galactooligosaccharide by monitoring the populations of gut bacterial groups at 24 hours using fluorescent in situ hybridisation, and short-chain fatty acid (SCFA). Fructooligosaccharides (FOS), melibiose and raffinose were used as reference carbohydrates.

[2] = test system: Clostridia; assay: Anaerobic culture utilisation, FISH enumeration at 24 h: Clostridia; conditions: inoculum 7.55
Description: as §1

[3] = test system: Eubacteria; assay: Anaerobic culture utilisation, FISH enumeration at 24 h: Eubacteria; conditions: inoculum 8.06
Description: as §1

[4] = test system: E. coli; assay: Anaerobic culture utilisation, FISH enumeration at 24 h: E. coli; conditions: inoculum 8.14
Description: as §1

[5] = test system: Bacteroides; assay: Anaerobic culture utilisation, FISH enumeration at 24 h: Bacteroides; conditions: inoculum 7.98
Description: as §1

[6] = test system: Lactobacilli; assay: Anaerobic culture utilisation, FISH enumeration at 24 h: Lactobacilli; conditions: inoculum 7.15
Description: as §1

Row | Structure (SMILES) | Bifidobacteria, 24 [1] | Clostridia, 24 [2] | Eubacteria, 24 [3] | E. coli, 24 [4] | Bacteroides, 24 [5] | Lactobacilli, 24 [6]
1 | OC[C@H]1O[C@H](OCC2O[C@@H](O)[C@H](O)[C@@H](O)[C@@H]2O)[C@H](O)[C@@H](O)[C@H]1O (stereo partly shown) [Melibiose, melibiose] | 7.33 | 7.65 | 7.84 | 7.66 | 7.9 | 7.43
2 | OC[C@H]1O[C@H](OC[C@H]2O[C@H](O[C@]3(CO)O[C@H](CO)[C@@H](O)[C@@H]3O)[C@H](O)[C@@H](O)[C@@H]2O)[C@H](O)[C@@H](O)[C@H]1O [Raffinose, raffinose] |  | 7.81 |  |  |  | 
